Data: patent publication EP0647227B1, “PURINONE ANTIANGINAL AGENTS” (Pfizer Limited, priority 1992, dated 1994)

Test system: calcium/calmodulin (Ca/CAM)-independent cGMP PDE
Experiment: Phosphodiesterase activity: in vitro PDE inhibition, modified "batch" method of Thompson and Appleman
Assay type: biochemical, rabbit
Details: selectivity between Ca/CAM-independent cGMP PDE and cGMP-inhibited cAMP PDE (cAMP IC50 / cGMP IC50)
Text: The calcium/calmodulin (Ca/CAM)-independent cGMP PDE and the cGMP-inhibited cAMP PDE enzymes are obtained from rabbit platelets whilst, of the four major PDE enzymes of the rat kidney, the Ca/CAM-dependent cGMP PDE (fraction I) is isolated.

| Compound | S[…] | SELECTIVITY RATIO |
| --- | --- | --- |
| CCCn1cnc2c(=O)[nH]c(-c3cc(S(=O)(=O)N4CCN(C)CC4)ccc3OCC)nc21 [Example 3, 2-[2-Ethoxy-5-(4-methyl-1-piperazinylsulphonyl)phenyl]-9-n-propylpurin-6-one] | 12,500 | – |
| CCCn1cnc2c(=O)[nH]c(-c3cc(S(=O)(=O)N4CCNCC4)ccc3OCC)nc21 [Example 2, 2-[2-Ethoxy-5-(1-piperazinylsulphonyl)phenyl]-9-n-propylpurin-6-one] | – | 6,250 |
| CCCn1cnc2c(=O)[nH]c(-c3ccccc3OCC)nc21 [Example 1, 2-(2-Ethoxyphenyl)-9-n-propylpurin-6-one] | – | >1,030 |
